13 compounds from patent US9206177B2, “Substituted dimeric quinazoline-2,4-diones as FGF receptor agonists” (Sanofi, priority 2011, dated 2015) can be followed below.

This assay concerns human venous endothelial cells (HUVECs). Nature of the assay: In vitro angiogenesis model (pseudotubule length of HUVECs on matrigel/collagen). The note with it: for EC50 / % activation with respect to FGF2 (in vitro): in vitro; for % activation with respect to FGF2 (in vitro): relative to FGF2. Format: cell-based. Also on record: % activation with respect to FGF2 (in vitro): concentration or dose not given beside the values. As to the method: In Vitro Angiogenesis Model
The products are tested for their ability to cause rearrangement of human venous endothelial cells (HUVECs) on matrigel (Becton dickinson 356230) diluted in collagen (rat tail collagen, type I: Becton dickinson 354236). After 24 hours, the cells are observed under a microscope with a ×4 objective and the length of the pseudotubules is measured by means of an image analyser (BIOCOM-logiciel Visiolab 2000).

As to `Cc1c(-c2cccc(OCCOCCOCCOCCOc3cccc(-c4c(C)c(C(=O)c5ccc6[nH]c(=O)n(CC(=O)O)c(=O)c6c5)n5ccccc45)c3)c2)c2ccccn2c1C(=O)c1ccc2[nH]c(=O)n(CC(=O)O)c(=O)c2c1` [Compound 2, 2,2′-{oxybis[ethane-2,1-diyloxyethane-2,1-diyloxybenzene-3,1-diyl(2-methylindolizine-1,3-diyl)carbonyl(2,4-dioxo-1,4-dihydroquinazoline-6,3(2H)-diyl)]}diacetic acid], the “% activation with respect to FGF2 (in vitro)” value (“% activation” below) is 44%. Under “Homo sapiens, HUVEC”, this compound gave an EC50 below 1 nM.

For the compound `Cc1c(-c2ccc(OCCOCCOCCOc3ccc(-c4c(C)c(C(=O)c5ccc6[nH]c(=O)n(CC(=O)O)c(=O)c6c5)n5ccccc45)cc3)cc2)c2ccccn2c1C(=O)c1ccc2[nH]c(=O)n(CC(=O)O)c(=O)c2c1` [Compound 3, 2,2′-{ethane-1,2-diylbis[oxyethane-2,1-diyloxybenzene-4,1-diyl(2-methylindolizine-1,3-diyl)carbonyl(2,4-dioxo-1,4-dihydroquinazoline-6,3(2H)-diyl)]}diacetic acid], the “% activation” value came out at 74%. Also, the EC50 (Homo sapiens, HUVEC) is below 1 nM. Further, the “active on the in vitro angiogenesis model” value (at a concentration of 10 nM) is “active”.

With `Cc1c(-c2ccc(OCC(=O)NCCCCNC(=O)COc3ccc(-c4c(C)c(C(=O)c5ccc6[nH]c(=O)n(CC(=O)O)c(=O)c6c5)n5ccccc45)cc3)cc2)c2ccccn2c1C(=O)c1ccc2[nH]c(=O)n(CC(=O)O)c(=O)c2c1` [Compound 5], the EC50 was below 100 nM and the “% activation” value came to 30%.

As for `Cc1c(-c2cccc(OCC(=O)NCCCCCCNC(=O)COc3cccc(-c4c(C)c(C(=O)c5ccc6[nH]c(=O)n(CC(=O)O)c(=O)c6c5)n5ccccc45)c3)c2)c2ccccn2c1C(=O)c1ccc2[nH]c(=O)n(CC(=O)O)c(=O)c2c1` [Compound 6], the EC50 was below 100 nM and the “% activation” value was 29%.

Consider `Cc1c(-c2cccc(OCC(=O)NCCCCNC(=O)COc3cccc(-c4c(C)c(C(=O)c5ccc6[nH]c(=O)n(CC(=O)O)c(=O)c6c5)n5ccccc45)c3)c2)c2ccccn2c1C(=O)c1ccc2[nH]c(=O)n(CC(=O)O)c(=O)c2c1` [Compound 7], for which the EC50 was below 100 nM and the “% activation” value stood at 28%.

As for `Cc1c(-c2ccc(OCCCCCN(CCCCCOc3ccc(-c4c(C)c(C(=O)c5ccc6c(=O)n(CC(=O)O)c(=O)[nH]c6c5)n5ccccc45)cc3)CCOCCO)cc2)c2ccccn2c1C(=O)c1ccc2c(=O)n(CC(=O)O)c(=O)[nH]c2c1` [Compound 8, 2,2′-({[2-(2-hydroxyethoxy)ethyl]imino}bis[pentane-5,1-diyloxybenzene-4,1-diyl(2-methylindolizine-1,3-diyl)carbonyl(2,4-dioxo-1,4-dihydroquinazoline-7,3(2H)-diyl)])diacetic acid], the “% activation” value was 42%. The compound also returned an EC50 (Homo sapiens, HUVEC) below 1 nM.

On to `CCN(CCCCCOc1ccc(-c2c(C)c(C(=O)c3ccc4c(=O)n(CC(=O)O)c(=O)[nH]c4c3)n3ccccc23)cc1)CCCCCOc1ccc(-c2c(C)c(C(=O)c3ccc4c(=O)n(CC(=O)O)c(=O)[nH]c4c3)n3ccccc23)cc1` [Compound 9, 2,2′-{(ethylimino)bis[pentane-5,1-diyloxybenzene-4,1-diyl(2-methylindolizine-1,3-diyl)carbonyl(2,4-dioxo-1,4-dihydroquinazoline-7,3(2H)-diyl)]}diacetic acid], for which the “% activation” value worked out at 28%. Also, where the note is “Homo sapiens, HUVEC”, the EC50 was below 100 nM.

Consider `Cc1c(-c2ccc(OCCCCCN(CCCCCOc3ccc(-c4c(C)c(C(=O)c5ccc6c(=O)n(CC(=O)O)c(=O)[nH]c6c5)n5ccccc45)cc3)CCN3CCOCC3)cc2)c2ccccn2c1C(=O)c1ccc2c(=O)n(CC(=O)O)c(=O)[nH]c2c1` [Compound 10, 2,2′-({[2-(morpholin-4-yl)ethyl]imino}bis[pentane-5,1-diyloxybenzene-4,1-diyl(2-methylindolizine-1,3-diyl)carbonyl(2,4-dioxo-1,4-dihydroquinazoline-7,3(2H)-diyl)])diacetic acid], for which the “% activation” value is 41%. For the same compound, for the setting “Homo sapiens, HUVEC”, the EC50 is below 1 nM.

On to `Cc1c(-c2ccc(OCCCCCN(CCCCCOc3ccc(-c4c(C)c(C(=O)c5ccc6c(=O)n(CC(=O)O)c(=O)[nH]c6c5)n5ccccc45)cc3)CCN3CCN(C)CC3)cc2)c2ccccn2c1C(=O)c1ccc2c(=O)n(CC(=O)O)c(=O)[nH]c2c1` [Compound 11, 2,2′-({[2-(4-methylpiperazin-1-yl)ethyl]imino}bis[pentane-5,1-diyloxybenzene-4,1-diyl(2-methylindolizine-1,3-diyl)carbonyl(2,4-dioxo-1,4-dihydroquinazoline-7,3(2H)-diyl)])diacetic acid], for which the “% activation” value came out at 63%. Also, the EC50 (Homo sapiens, HUVEC) was below 1 nM.

Turning to `Cc1c(-c2ccc(OCCCCCN(CCCCCOc3ccc(-c4c(C)c(C(=O)c5ccc6c(=O)n(CC(=O)O)c(=O)[nH]c6c5)n5ccccc45)cc3)Cc3ccncc3)cc2)c2ccccn2c1C(=O)c1ccc2c(=O)n(CC(=O)O)c(=O)[nH]c2c1` [Compound 12, 2,2′-{[(pyridin-4-ylmethyl)imino]bis[pentane-5,1-diyloxybenzene-4,1-diyl(2-methylindolizine-1,3-diyl)carbonyl(2,4-dioxo-1,4-dihydroquinazoline-7,3(2H)-diyl)]}diacetic acid], the “% activation” value is 42%. This compound also came in with an EC50 (Homo sapiens, HUVEC) below 1 nM.

On to `Cc1c(-c2ccc(OCCCCCN(CCCCCOc3ccc(-c4c(C)c(C(=O)c5ccc6c(=O)n(CC(=O)O)c(=O)[nH]c6c5)n5ccccc45)cc3)Cc3ccc(N(C)C)cc3)cc2)c2ccccn2c1C(=O)c1ccc2c(=O)n(CC(=O)O)c(=O)[nH]c2c1` [Compound 13, 2,2′-({[4-(dimethylamino)benzyl]imino}bis[pentane-5,1-diyloxybenzene-4,1-diyl(2-methylindolizine-1,3-diyl)carbonyl(2,4-dioxo-1,4-dihydroquinazoline-7,3(2H)-diyl)])diacetic acid], for which the “% activation” value came out at 23%. This compound returned an EC50 (Homo sapiens, HUVEC) below 100 nM.

`CCN(CC)CCN(CCCCCOc1ccc(-c2c(C)c(C(=O)c3ccc4c(=O)n(CC(=O)O)c(=O)[nH]c4c3)n3ccccc23)cc1)CCCCCOc1ccc(-c2c(C)c(C(=O)c3ccc4c(=O)n(CC(=O)O)c(=O)[nH]c4c3)n3ccccc23)cc1` [Compound 14, 2,2′-({[2-(diethylamino)ethyl]imino}bis[pentane-5,1-diyloxybenzene-4,1-diyl(2-methylindolizine-1,3-diyl)carbonyl(2,4-dioxo-1,4-dihydroquinazoline-7,3(2H)-diyl)])diacetic acid]: the “% activation” value was 62%. This compound showed an EC50 (Homo sapiens, HUVEC) below 1 nM.

In the case of `Cc1c(-c2ccc(OCCCN3CCN(CCCOc4ccc(-c5c(C)c(C(=O)c6ccc7c(=O)n(CC(=O)O)c(=O)[nH]c7c6)n6ccccc56)cc4)CC3)cc2)c2ccccn2c1C(=O)c1ccc2c(=O)n(CC(=O)O)c(=O)[nH]c2c1` [Compound 15, 2,2′-{piperazine-1,4-diylbis[propane-3,1-diyloxybenzene-4,1-diyl(2-methylindolizine-1,3-diyl)carbonyl(2,4-dioxo-1,4-dihydroquinazoline-7,3(2H)-diyl)]}diacetic acid], the “% activation” value came out at 24%. The compound also yielded an EC50 (Homo sapiens, HUVEC) below 100 nM.

As usually defined, the EC50 is the concentration giving half of the maximal effect.
